According to patent publication US8999990B2, “Inhibitors of the renal outer medullary potassium channel” (Merck Sharp & Dohme Corp., priority 2011, dated 2015):

Target: T1, hROMK1 (Kir1.1) (Homo sapiens, UniProt P48048)
T1 construct: expressed in transfected cells
T1 sequence (P48048 1-391): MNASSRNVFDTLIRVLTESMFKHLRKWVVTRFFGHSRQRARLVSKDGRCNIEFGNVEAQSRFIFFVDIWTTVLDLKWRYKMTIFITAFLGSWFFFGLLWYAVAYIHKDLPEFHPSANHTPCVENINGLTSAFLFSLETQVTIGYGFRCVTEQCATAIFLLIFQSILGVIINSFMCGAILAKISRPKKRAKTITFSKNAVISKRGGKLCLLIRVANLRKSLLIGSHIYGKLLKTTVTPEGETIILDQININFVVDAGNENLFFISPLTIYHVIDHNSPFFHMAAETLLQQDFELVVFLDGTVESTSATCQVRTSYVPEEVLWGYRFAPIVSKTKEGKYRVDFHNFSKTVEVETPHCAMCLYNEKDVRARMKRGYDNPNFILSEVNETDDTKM
Assay: 86Rb+ Efflux Assay
Type: cell-based
Details: CHO-DHFR- cells stably expressing hROMK1; 35 min incubation
Method: Several assays may be used to measure functional inhibition of the ROMK channel by compounds of the instant invention. One assay that was used to test the activity of compounds in the Examples is the functional ^86Rb^+ efflux assay described below, that measures the ability of ROMK to permeate ^86Rb^+, in the absence or presence of test compound. Under control conditions, cells loaded with ^86Rb^+ and incubated in Rb^+-free medium display a time-dependent efflux of the isotope, the rate of which depends on number of functional channels. When cells are incubated in the presence of a channel inhibitor, efflux of ^86Rb^+ is prevented in a concentration-dependent manner, and IC50 values of inhibition by compounds can be accurately determined. This assay has been established with cell lines expressing either human, rat or dog ROMK channels, and can operate in 96- or 384-well format. Importantly, the human, rat, and dog ^86Rb^+ efflux assays can be carried out in the presence of up to 100% serum allowing, therefore, an accurate estimation of the effect of protein binding on the inhibitory activity of compounds of interest. Another ROMK functional assay used to test the activity of compounds in the Examples (described below) makes use of the ability of thallium to permeate through open ROMK channels and increase the fluorescence of a dye previously loaded into the cells. Under control conditions, cells loaded with dye and exposed to thallium-containing medium display a time-dependent increase in fluorescence, the rate of which depends on number of functional channels. When cells are incubated in the presence of a channel inhibitor, the increase in fluorescence is attenuated in a concentration-dependent manner, and IC50 values of inhibition by compounds can be accurately determined. This assay has been established with cell lines expressing either human, or rat ROMK channels, and operates in 384-well format.
CHO-DHFR-cells stably expressing hROMK1 (Kir1.1) are grown at 37° C. in a 10% CO2 humidified incubator in Iscove's Modified Dulbecco's Medium (Gibco 12440) supplemented with HT Supplement, Penicillin/Streptomycin/Glutamine, G418 (500 μg/ml) and 10% FBS. Cells are seeded in Sterile and Tissue Culture Treated Packard CulturPlate White Opaque Microplates at a concentration of 5.0E5-7.0E5 cells/ml-PerkinElmer 6005680 (96-well); Corning 3707 (384 well) in complete media containing 1.5 μCi/ml Rubidium-86. Cells are incubated in 37° C.-10% CO2 incubator overnight. On the day of the experiment, the media is removed and cells are washed with low K assay buffer. ^86Rb^+ efflux is initiated after addition of assay buffer±test compound followed by 35 min incubation at room temperature. ROMK-sensitive component of efflux is defined in the presence of 10 mM BaCl2. Assay buffer is removed and transferred to a plate and cells are solubilized in the presence of SDS. Radioactivity associated with assay and cell plate is determined.
• 1. Remove cell media and wash cells with low K assay buffer (126.9 mM NaCl, 4.6 mM KCl, 2 mM CaCl2, 1 mM MgCl2, 10 mM Hepes/NaOH; pH 7.4) • 200 μl for 96-well plate; 70 μl for 384-well plate • 2. Add assay buffer (121.5 mM NaCl, 10 mM KCl, 2 mM CaCl2, 1 mM MgCl2, 10 mM Hepes/NaOH; pH 7.4)±test compound to cells • 100 μl for 96-well plate; 50 μl for 384-well plate • 3. Incubate at ambient temperature (22-24° C.) for 35 min • 4. Remove assay buffer add it to a 96- or 384-well plate containing Microscint-20 • 96-well Plate: 100 μl buffer, 170 μl MicroScint 20 (for TopCount) • 384-well plate: 20 μl buffer, 50 μl Optiphiase (for MicroLux) • 5. Completely remove remaining assay buffer from cell plate • 6. Solubilize cells with 1% SDS; than add MicroScint or Optiphase • 96-well Plate: 30 μl SDS, 170 μl MicroScint 20 (for TopCount) • 384-well plate: 20 μl SDS, 50 μl Optiphiase (for MicroLux) • 7. Seal both cell and supernatant plates and count Data Calculation— […]

| SMILES | IC50 [µM] |
| --- | --- |
| COC(=O)c1cc([N+](=O)[O-])ccc1CCN1CCN(CCc2ccc([N+](=O)[O-])cc2)C(=O)C1 [Example 7, Methyl 5-nitro-2-(2-{4-[2-(4-nitrophenyl)ethyl]-3-oxopiperazin-1-yl}ethyl)benzoate] | 0.39 |
| N#Cc1ccc2c(c1)CCC2CN1CCN(CCc2ccc3c(c2)COC3=O)CC1=O (racemic) [Example 40, 1-({2-Oxo-4-[2-(1-oxo-1,3-dihydro-2-benzofuran-5-yl)ethyl]piperazin-1-yl}methyl)-2,3-dihydro-1H-indene-5-carbonitrile] | 0.12 |
| N#Cc1ccc2c(c1)CC(CN1CCN(CCc3ccc4c(c3)COC4=O)CC1=O)C2 (racemic) [Example 41, 2-({2-Oxo-4-[2-(1-oxo-1,3-dihydro-2-benzofuran-5-yl)ethyl]piperazin-1-yl}methyl)-2,3-dihydro-1H-indene-5-carbonitrile] | 0.38 |
| COC(=O)c1cc(CCN2CCN(CCc3ccc([N+](=O)[O-])cc3)C(=O)C2)ccc1[N+](=O)[O-] [Example 8, Methyl 2-nitro-5-(2-{4-[2-(4-nitrophenyl)ethyl]-3-oxopiperazin-1-yl}ethyl)benzoate] | 0.25 |
| N#Cc1ccc2c(c1)CCC(N1CCN(CCc3ccc([N+](=O)[O-])c(F)c3)CC1=O)C2 (racemic) [Example 21, 6-{4-[2-(3-Fluoro-4-nitrophenyl)ethyl]-2-oxopiperazin-1-yl}-5,6,7,8-tetrahydronaphthalene-2-carbonitrile] | 0.12 |
| N#Cc1cccc2c1CCCC2CN1CCN(CCc2ccc3c(c2)COC3=O)CC1=O (racemic) [Example 33, 5-((2-oxo-4-(2-(1-oxo-1,3-dihydroisobenzofuran-5-yl)ethyl)piperazin-1-yl)methyl)-5,6,7,8-tetrahydronaphthalene-1-carbonitrile] | 0.15 |
| O=C1CN(CCc2ccc([N+](=O)[O-])c(C(F)(F)F)c2)CCN1CCc1ccc([N+](=O)[O-])cc1 [Example 3, 1-[2-(4-Nitrophenyl)ethyl]-4-{2-[4-nitro-3-(trifluoromethyl)phenyl]ethyl}piperazin-2-one] | 0.74 |
| CC1C(=O)N(CCc2ccc([N+](=O)[O-])cc2)CCN1CCc1ccc([N+](=O)[O-])cc1 (racemic) [Example 6, 3-Methyl-1,4-bis[2-(4-nitrophenyl)ethyl]piperazin-2-one] | 0.27 |
| N#Cc1ccc2c(c1)CCC(N1CCN(CCc3ccc([N+](=O)[O-])cc3)CC1=O)C2 (racemic) [Example 23, 6-{4-[2-(4-Nitrophenyl)ethyl]-2-oxopiperazin-1-yl}-5,6,7,8-tetrahydronaphthalene-2-carbonitrile] | 0.06 |

Next, values leading:

| IC50 [µM] | SMILES |
| --- | --- |
| 0.36 | N#Cc1c(F)ccc2c1CCC2CN1CCN(CCc2ccc3c(c2)COC3=O)CC1=O (stereo not drawn) [Example 34, 5-Fluoro-1-({2-oxo-4-[2-(1-oxo-1,3-dihydro-2-benzofuran-5-yl)ethyl]piperazin-1-yl}methyl)-2,3-dihydro-1H-indene-4-carbonitrile] |
| 0.12 | N#Cc1ccc(CCN2CCN(CCc3ccc([N+](=O)[O-])cc3)C(=O)C2)cc1 [Example 5, 4-(2-{4-[2-(4-Nitrophenyl)ethyl]-3-oxopiperazin-1-yl}ethyl)benzonitrile] |
| 0.17 | N#Cc1ccc(CCN2CCN(CCc3ccc4c(c3)COC4=O)CC2=O)cc1Br [Example 35] |
| 0.72 | N#Cc1ccc2c(c1)CCC(N1CCN(C(=O)Cc3ccc(-n4cnnn4)cc3)CC1=O)C2 (racemic) [Example 56, 6-(2-Oxo-4-{[4-(1H-tetrazol-1-yl)phenyl]acetyl}piperazin-1-yl)-5,6,7,8-tetrahydronaphthalene-2-carbonitrile] |
| 0.14 | COc1cc([N+](=O)[O-])ccc1CCN1CCN(CCc2ccc([N+](=O)[O-])cc2)C(=O)C1 [Example 11, 4-[2-(2-Methoxy-4-nitrophenyl)ethyl]-1-[2-(4-nitrophenyl)ethyl]piperazin-2-one] |
| 0.41 | N#Cc1ccc2c(c1)CCC(N1CCN(CCc3ccc4c(c3Cl)COC4=O)CC1=O)C2 (racemic) [Example 31, 6-{4-[2-(4-Chloro-1-oxo-1,3-dihydro-2-benzofuran-5-yl)ethyl]-2-oxopiperazin-1-yl}-5,6,7,8-tetrahydronaphthalene-2-carbonitrile] |
| 0.41 | N#Cc1ccc2c(c1)CCC(N1CCN(CCc3ccc4c(c3)COC4=O)C(=O)C1)C2 (racemic) [Example 28, 6-{3-Oxo-4-[2-(1-oxo-1,3-dihydro-2-benzofuran-5-yl)ethyl]piperazin-1-yl}-5,6,7,8-tetrahydronaphthalene-2-carbonitrile] |
| 0.8 | N#Cc1ccc2c(c1)CCC(N1CCN(C(=O)C3CCc4cc(-n5cnnn5)ccc43)CC1=O)C2 (stereo not drawn) [Example 57, 6-(2-Oxo-4-{[5-(1H-tetrazol-1-yl)-2,3-dihydro-1H-inden-1-yl]carbonyl}piperazin-1-yl)-5,6,7,8-tetrahydronaphthalene-2-carbonitrile] |
| 0.31 | N#Cc1ccc2c(c1)CCC(N1CCN(CCc3ccc4nonc4c3)CC1=O)C2 (racemic) [Example 13, 6-{4-[2-(2,1,3-Benzoxadiazol-5-yl)ethyl]-2-oxopiperazin-1-yl}-5,6,7,8-tetrahydronaphthalene-2-carbonitrile] |
| 0.04 | N#Cc1ccc2c(c1)CCC(N1CCN(CCc3ccc([N+](=O)[O-])cc3)C(=O)C1)C2 (racemic) [Example 2, 6-(4-(4-nitrophenethyl)-3-oxopiperazin-1-yl)-5,6,7,8-tetrahydronaphthalene-2-carbonitrile] |
| 0.28 | N#Cc1ccc2c(c1)CC(N1CCN(CCc3ccc4c(c3)COC4=O)CC1=O)CC2 (racemic) [Example 37, 7-{2-Oxo-4-[2-(1-oxo-1,3-dihydro-2-benzofuran-5-yl)ethyl]piperazin-1-yl}-5,6,7,8-tetrahydronaphthalene-2-carbonitrile] |
| 0.37 | COc1cc([N+](=O)[O-])ccc1CCN1CCN(CCc2ccc3nonc3c2)C(=O)C1 [Example 10, 1-[2-(2,1,3-Benzoxadiazol-5-yl)ethyl]-4-[2-(2-methoxy-4-nitrophenyl)ethyl]piperazin-2-one] |
